Test results taken from ChEMBL document CHEMBL1125889, “8-(Dicyclopropylmethyl)-1,3-dipropylxanthine: a potent and selective adenosine A1 antagonist with renal protective and diuretic activities” (J Med Chem, 1991).

What follows are compounds tested against T1, Adenosine A2 receptor (Rattus norvegicus, UniProt P29276+P30543). Settings: not given.
Format: cell membranes, Membrane

| SMILES | Ki |
| --- | --- |
| CCCn1c(=O)c2nc(C(C)Cc3ccc(OC)cc3)[nH]c2n(CCC)c1=O (centres undefined) | 580 nM |
| CCCn1c(=O)c2nc(C(C)Cc3ccccc3)[nH]c2n(CCC)c1=O (centres undefined) | 480 nM |
| CCCn1c(=O)c2nc(C(C3CC3C)C3CC3C)[nH]c2n(CCC)c1=O (centres undefined) | 1000 nM |
| CCCn1c(=O)[nH]c(=O)c2[nH]c(C(C3CC3)C3CC3)nc21 | > 100000 nM |
| CCCC(CCC)c1nc2c(=O)n(CCC)c(=O)n(CCC)c2[nH]1 | 590 nM |
| CCCn1c(=O)c2nc(C(CC)CC)[nH]c2n(CCC)c1=O | 570 nM |
| CCCn1c(=O)c2nc(C(C)CC)[nH]c2n(CCC)c1=O (centres undefined) | 1200 nM |
| CCCn1c(=O)c2nc(C(c3ccccc3)C3CCCC3)[nH]c2n(CCC)c1=O (centres undefined) | 4000 nM |
| CCCn1c(=O)c2nc(C(c3ccc(F)cc3)C3CC3)[nH]c2n(CCC)c1=O (centres undefined) | 1400 nM |
| CCCn1c(=O)c2nc(C(C)C)[nH]c2n(CCC)c1=O | 1500 nM |
| CCCn1c(=O)c2nc(C(CC)Oc3ccccc3)[nH]c2n(CCC)c1=O (centres undefined) | 3300 nM |
| CCCn1c(=O)c2nc(C(CC)c3ccccc3)[nH]c2n(CCC)c1=O (centres undefined) | 1100 nM |
| CCCn1c(=O)c2nc(C(c3ccccc3)C3CC3)[nH]c2n(CCC)c1=O (centres undefined) | 1800 nM |
| CCCn1c(=O)c2nc(C(C3CCCCC3)C3CCCCC3)[nH]c2n(CCC)c1=O | > 100000 nM |
| CCCn1c(=O)c2nc(C(C)N)[nH]c2n(CCC)c1=O (centres undefined) | > 100000 nM |

These compounds were tested against T2, Adenosine receptor A1 (Cavia porcellus, UniProt P47745) (assay: Binding affinity carried out with [3H]cyclohexyladenosine in guinea pig forebrain membranes against adenosine A1 receptor). Settings: not given.
T2 sequence (P47745 whole entry): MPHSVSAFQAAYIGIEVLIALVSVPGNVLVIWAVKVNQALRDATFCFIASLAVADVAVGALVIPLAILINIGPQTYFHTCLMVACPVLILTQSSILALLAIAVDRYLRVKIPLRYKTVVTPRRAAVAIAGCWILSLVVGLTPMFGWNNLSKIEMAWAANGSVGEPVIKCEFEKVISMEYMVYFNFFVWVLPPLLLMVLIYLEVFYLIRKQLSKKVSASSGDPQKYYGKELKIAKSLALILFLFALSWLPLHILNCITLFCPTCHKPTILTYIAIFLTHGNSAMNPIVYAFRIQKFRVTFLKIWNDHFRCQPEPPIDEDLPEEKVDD
Format: cell membranes, Brain membranes

| SMILES | Ki |
| --- | --- |
| CCCn1c(=O)c2[nH]c(C(C3CC3C)C3CC3C)nc2n(CCC)c1=O (centres undefined) | 9.7 nM |
| CCCn1c(=O)c2c(nc(C(C3CC3)C3CC3)n2CCC)n(CCC)c1=O | 13000 nM |
| CCCn1c(=O)c2[nH]c(C(c3ccccc3)C3CCCC3)nc2n(CCC)c1=O (centres undefined) | 400 nM |
| CCCn1c(=O)c2c(nc(C(C3CC3)C3CC3)n2CC)n(CCC)c1=O | 1600 nM |
| CCCn1c(=O)[nH]c(=O)c2[nH]c(C(C3CC3)C3CC3)nc21 | 1300 nM |
| CCCCn1c(=O)c2nc(C(C3CC3)C3CC3)[nH]c2n(CCCC)c1=O | 5.5 nM |
| CCCC(CCC)c1nc2c([nH]1)c(=O)n(CCC)c(=O)n2CCC | 78 nM |
| CCCn1c(=O)c2nc(C(c3ccc(OC)cc3)C3CC3)[nH]c2n(CCC)c1=O (centres undefined) | 250 nM |
| CCCn1c(=O)c2[nH]c(C(C)Cc3ccc(OC)cc3)nc2n(CCC)c1=O (centres undefined) | 220 nM |
| CCn1c(=O)c2[nH]c(C(C3CC3)C3CC3)nc2n(CC)c1=O | 13 nM |
| CCCn1c(=O)c2c(nc(C(C3CC3)C3CC3)n2C)n(CCC)c1=O | 7400 nM |
| CCCn1c(=O)c2nc(C(C)C)[nH]c2n(CCC)c1=O | 49 nM |
| CCCn1c(=O)c2nc(C(CC)Oc3ccccc3)[nH]c2n(CCC)c1=O (centres undefined) | 900 nM |
| CCCn1c(=O)c2[nH]c(C(c3ccccc3)c3ccccc3)nc2n(CCC)c1=O | 2100 nM |
| CCCn1c(=O)c2nc(C(CC)c3ccccc3)[nH]c2n(CCC)c1=O (centres undefined) | 100 nM |
| CCCn1c(=O)c2[nH]c(C(C)CC)nc2n(CCC)c1=O (centres undefined) | 25 nM |
| CCCn1c(=O)c2[nH]c(C(C)Cc3ccccc3)nc2n(CCC)c1=O (centres undefined) | 260 nM |
| CCCn1c(=O)c2nc(C(c3ccccc3)C3CC3)[nH]c2n(CCC)c1=O (centres undefined) | 150 nM |
| CC(C)Cn1c(=O)n(C)c(=O)c2[nH]c(C(C3CC3)C3CC3)nc21 | 12 nM |
| CCCn1c(=O)c2[nH]c(C(c3ccc(F)cc3)C3CC3)nc2n(CCC)c1=O (centres undefined) | 250 nM |
| Cn1c(=O)c2nc(C(C3CC3)C3CC3)[nH]c2n(C)c1=O | 81 nM |
| CCCn1c(=O)c2nc(C(C3CCCCC3)C3CCCCC3)[nH]c2n(CCC)c1=O | > 100000 nM |
| CCCn1c(=O)c2nc(C(C)N)[nH]c2n(CCC)c1=O (centres undefined) | 3000 nM |

Target: T1, Adenosine A2 receptor
Format: cell membranes, Membrane
Settings: not given
Remark: another data set of the same source

| SMILES | Ki |
| --- | --- |
| CCCn1c(=O)c2nc(C(c3ccccc3)c3ccccc3)[nH]c2n(CCC)c1=O | > 100 µM |
| CCCn1c(=O)c2nc(C(c3ccc(OC)cc3)C3CC3)[nH]c2n(CCC)c1=O (centres undefined) | 2.2 µM |

These compounds were tested on Rattus norvegicus (assay: Compound was evaluated for Serum creatinine concentration in glycerol injected rats treated with 10 mg/kg administered intraperitoneally.). Settings: not given.
Format: functional, organism-based
Set-up: dose 10 mg/kg

| SMILES | Serum creatinine conc |
| --- | --- |
| Cn1c(=O)c2[nH]cnc2n(C)c1=O.O [THEOPHYLLINE] | 5.32 mg/dL |
| NS(=O)(=O)c1cc(C(=O)O)c(NCc2ccco2)cc1Cl | 4.17 mg/dL |

Each compound was assayed on Rattus norvegicus (assay: Compound was evaluated for Serum creatinine concentration in glycerol injected rats treated with 1 mg/kg administered intraperitoneally). Settings: not given.
Format: functional, organism-based
Set-up: dose 1 mg/kg

| SMILES | Serum creatinine conc |
| --- | --- |
| CCCn1c(=O)c2[nH]c(C3CCCC3)nc2n(CCC)c1=O [1,3-DIPROPYL-8-CYCLOPENTYLXANTHINE [DPCPX]] | 3.75 mg/dL |
| CCCn1c(=O)c2nc(C(C3CC3)C3CC3)[nH]c2n(CCC)c1=O | 2.99 mg/dL |

Species: Cavia porcellus
Experiment: Ki ratio evaluated as the Ki of A2 to that A1 receptor values.
Settings: not given

| SMILES | Ki ratio |
| --- | --- |
| CCCn1c(=O)c2nc(C(C)Cc3ccc(OC)cc3)[nH]c2n(CCC)c1=O (centres undefined) | 2.6 |
| CCCn1c(=O)c2c(nc(C(C3CC3)C3CC3)n2CCC)n(CCC)c1=O | 0.48 |
| CCCn1c(=O)c2nc(C(C)Cc3ccccc3)[nH]c2n(CCC)c1=O (centres undefined) | 1.8 |
| CCCn1c(=O)c2c(nc(C(C3CC3)C3CC3)n2CC)n(CCC)c1=O | 8.8 |
| CCCn1c(=O)c2nc(C(C3CC3C)C3CC3C)[nH]c2n(CCC)c1=O (centres undefined) | 100 |
| CCCn1c(=O)[nH]c(=O)c2[nH]c(C(C3CC3)C3CC3)nc21 | > 77 |
| CCCn1c(=O)c2nc(C(c3ccccc3)c3ccccc3)[nH]c2n(CCC)c1=O | > 48 |
| CCCC(CCC)c1nc2c(=O)n(CCC)c(=O)n(CCC)c2[nH]1 | 7.6 |
| CCCCn1c(=O)c2nc(C(C3CC3)C3CC3)[nH]c2n(CCCC)c1=O | 80 |
| CCCn1c(=O)c2nc(C(c3ccc(OC)cc3)C3CC3)[nH]c2n(CCC)c1=O (centres undefined) | 8.8 |
| CCCn1c(=O)c2nc(C(CC)CC)[nH]c2n(CCC)c1=O | 30 |
| CCCn1c(=O)c2nc(C(C)CC)[nH]c2n(CCC)c1=O (centres undefined) | 48 |
| CCn1c(=O)c2nc(C(C3CC3)C3CC3)[nH]c2n(CC)c1=O | 53 |
| CCCn1c(=O)c2nc(C(c3ccccc3)C3CCCC3)[nH]c2n(CCC)c1=O (centres undefined) | 10 |
| CCCn1c(=O)c2c(nc(C(C3CC3)C3CC3)n2C)n(CCC)c1=O | 3.9 |
| CCCn1c(=O)c2nc(C(c3ccc(F)cc3)C3CC3)[nH]c2n(CCC)c1=O (centres undefined) | 5.6 |
| CCCn1c(=O)c2nc(C(C3CC3)C3CC3)[nH]c2n(CCC)c1=O | 140 |
| CCCn1c(=O)c2nc(C(C)C)[nH]c2n(CCC)c1=O | 31 |
| CCCn1c(=O)c2nc(C(CC)Oc3ccccc3)[nH]c2n(CCC)c1=O (centres undefined) | 3.7 |
| CCCn1c(=O)c2nc(C(CC)c3ccccc3)[nH]c2n(CCC)c1=O (centres undefined) | 11 |
| CCCn1c(=O)c2nc(C(c3ccccc3)C3CC3)[nH]c2n(CCC)c1=O (centres undefined) | 12 |
| CC(C)Cn1c(=O)n(C)c(=O)c2[nH]c(C(C3CC3)C3CC3)nc21 | 34 |
| Cn1c(=O)c2nc(C(C3CC3)C3CC3)[nH]c2n(C)c1=O | 33 |
| CCCn1c(=O)c2nc(C(C)N)[nH]c2n(CCC)c1=O (centres undefined) | > 33 |

These compounds were tested against T2, Adenosine receptor A1. Settings: not given.

| SMILES | Ki |
| --- | --- |
| Cn1c(=O)c2c(ncn2C)n(C)c1=O [CAFFEINE] | > 100000 nM |
| CCCn1c(=O)c2nc[nH]c2n(CCC)c1=O | 1200 nM |

Species: Rattus norvegicus
Settings: in vivo, po, 6 h
Description: Compound administered at a dose of 6.25 mg/25 mL/kg orally to rats, urine collected for 6 hr and measured for K+ excretion.

| SMILES | K+ excretion |
| --- | --- |
| CCCn1c(=O)c2[nH]c(C3CCCC3)nc2n(CCC)c1=O [1,3-DIPROPYL-8-CYCLOPENTYLXANTHINE [DPCPX]] | 1.26 ml 6hr-1 100g-1 |
| Cn1c(=O)c2[nH]cnc2n(C)c1=O.O [THEOPHYLLINE] | 1.16 ml 6hr-1 100g-1 |
| Cn1c(=O)c2c(ncn2C)n(C)c1=O [CAFFEINE] | 0.99 ml 6hr-1 100g-1 |

Species: Rattus norvegicus
Settings: in vivo, po, 6 h
Remark: another data set of the same source
Description: Compound administered at a dose of 6.25 mg/25 mL/kg orally to rats, urine collected for 6 hr and measured for Na+ excretion.

| SMILES | Na+ excretion | K+ excretion |
| --- | --- | --- |
| CCCn1c(=O)c2[nH]c(C3CCCC3)nc2n(CCC)c1=O [1,3-DIPROPYL-8-CYCLOPENTYLXANTHINE [DPCPX]] | 1.98 ml 6hr-1 100g-1 | – |
| Cn1c(=O)c2[nH]cnc2n(C)c1=O.O [THEOPHYLLINE] | 1.52 ml 6hr-1 100g-1 | – |
| Cn1c(=O)c2c(ncn2C)n(C)c1=O [CAFFEINE] | – | 1.1 ml 6hr-1 100g-1 |

Species: Rattus norvegicus
Settings: in vivo, po, 6 h
Remark: another data set of the same source
Description: Compound administered at a dose of 6.25 mg/25 mL/kg orally to rats, urine collected for 6 hr and measured for urine volume.

| SMILES | Urine volume |
| --- | --- |
| CCCn1c(=O)c2[nH]c(C3CCCC3)nc2n(CCC)c1=O [1,3-DIPROPYL-8-CYCLOPENTYLXANTHINE [DPCPX]] | 1.87 ml 6hr-1 100g-1 |
| Cn1c(=O)c2[nH]cnc2n(C)c1=O.O [THEOPHYLLINE] | 1.42 ml 6hr-1 100g-1 |
| Cn1c(=O)c2c(ncn2C)n(C)c1=O [CAFFEINE] | 0.92 ml 6hr-1 100g-1 |
